COc1ccc(C(=O)NCC(=O)O)cc1OC1CCCC1 [Example 17]
melting point: 156 to 168 °C

Source: patent US6384236B1, “N-(aroyl)glycine hydroxamic acid derivatives and related compounds” (Pfizer Inc, priority 1995, dated 2002)
